# Values joined by “and” are separate entries in the source; they are usually repeats but may differ in a detail not shown here. Equal entries are not always repeated.
# How the values were obtained:
# normal canines = experiment: In vivo renal function, peptide infusion in normal canines; design: species or system canine; conditions: for RBF / GFR / DFRNa (distal fractional reabsorption of Na+) / PFRNa (proximal fractional reabsorption of Na+) / MAP: SEM
# neprilysin (NEP) = conditions: cited from earlier work
# [1] = Post-I (after 30-min washout), lithium clearance, mean ± SEM
# [2] = Pre-I (prior to infusion, baseline), lithium clearance technique, mean ± SEM
# [3] = normal canines, infusion 32 mmol/kg/min
substance,measurement,setting,value
"CNP: native C-type natriuretic peptide, 22 amino acids, selective pGC-B activator",RBF,"normal canines; 30 min I (16th-45th min of infusion, 32 mmol/kg/min), mean ± SEM",294 ± 31 mL/min
same,RBF,"normal canines; 60 min I (46th-75th min of infusion, 32 mmol/kg/min), mean ± SEM",278 ± 29 mL/min
same,GFR,"normal canines; Post-I (after 30-min washout), inulin clearance, mean ± SEM",48.8 ± 5.6 mL/min
same,DFRNa (distal fractional reabsorption of Na+),normal canines; [1],97±0.8%
same,PFRNa (proximal fractional reabsorption of Na+),normal canines; [1],73±2%
same,RBF,"normal canines; Post-I (after 30-min washout), mean ± SEM",270 ± 25 mL/min
same,RBF,"normal canines; Pre-I (prior to infusion, baseline), electromagnetic flow probe, mean ± SEM",273 ± 26 mL/min
same,DFRNa (distal fractional reabsorption of Na+),normal canines; [2],98±0.6%
same,PFRNa (proximal fractional reabsorption of Na+),normal canines; [2],80±3%
same,MAP,"normal canines; dog, in vivo, iv",127±4 mmHg and 128±4 mmHg
same,GFR,"normal canines; dog, in vivo",52.3 ± 5.1 mL/min
same,MAP,"normal canines; dog, in vivo",123±4 mmHg and 128±4 mmHg
same,net renal generation of cGMP (in words),normal canines; [3],unchanged
same,plasma cGMP (in words),normal canines; [3],modestly increased
same,urinary cGMP excretion (in words),normal canines; [3],unchanged
same,susceptibility to enzymatic degradation by NEP (in words),neprilysin (NEP),highly susceptible

# Reference: PMC4853826 (European heart journal. Cardiovascular pharmacotherapy, 2015)
